Results as given in patent US12344600B2, “c-Myc mRNA translation modulators and uses thereof in the treatment of cancer” (Anima Biotech Inc., priority 2022, dated 2025).

System: c-Myc
Experiment: c-Myc immunofluorescence assay
Type: cell-based, human
Conditions: A549 cells, 24 hours, anti-c-Myc immunofluorescence
Experimental: A549 human non-small cell lung carcinoma cells were treated for 24 hours with increasing compound concentration, cells were fixed and stained with a nuclei stain (DAPI) and anti-c-Myc fluorescent antibody. The c-Myc signal was quantified by image analysis, and data was exported and analyzed using TIBCO Spotfire® (TIBCO Corporation). Dose response curves were generated and fitted with logaristic regression to calculate potency (EC50 values). Potency values are presented in Table 2 for all compounds and are shown for selected compounds (FIG. 3).
A549 cells were grown in 384-wells plates (Perkin Elmer, Cat. 6057300) for 48 hours, treated with compounds and then fixed for 20 min in 4% paraformaldehyde. After that permeabilization was done using 0.1% Triton X-100 in PBS for 20 min. Primary anti-c-Myc antibody (Abcam, ab32072) staining was performed for 90 min at room temperature. Cells then were washed twice with PBS and incubated with secondary antibody (Abcam, ab150075) for 90 min at room temperature. Nuclei were stained with DAPI for 10 min and washed twice with PBS.
Cell images were taken with Operetta (Perkin Elmer, USA), a wide-field fluorescence microscope at 20× magnification. After acquisition, the images were transferred to Columbus software (Perkin-Elmer) for image analysis. In Columbus, cells were identified by their nucleus, using the “Find Nuceli” module and cytoplasm was detected based on the secondary antibody channel. Subsequently, the fluorescent signal was enumerated in the identified cell region. Then data was exported to a data analysis and visualization software, Tibco Spotfire, USA.

SMILES | Myc Efficacy (−LogEC50)
CCCCN(CC)CCCNC(=O)C1CCN(c2nc(-c3ccc(OC)cc3)no2)CC1 [Compound 102, N-(3-(butyl(ethyl)amino)propyl)-1-(3-(4-methoxyphenyl)-1,2,4-oxadiazol-5-yl)piperidine-4-carboxamide] | + (+ >3 and <5)
COc1ccc(-c2noc(N3CCC(C(=O)NCC4CCN(CCC(C)C)C4)CC3)n2)cc1 (stereo not drawn) [Compound 411, N-((1-isopentylpyrrolidin-3-yl)methyl)-1-(3-(4-methoxyphenyl)-1,2,4-oxadiazol-5-yl)piperidine-4-carboxamide] | ++ (++ ≥5 and <6)
C#CCCC1(CCOc2ccc(-c3noc(N4CCC(C(=O)NCC5CCN(Cc6ccc(C)cc6)C5)CC4)n3)cc2)N=N1 (stereo not drawn) [Compound 287, 1-(3-(4-(2-(3-(but-3-yn-1-yl)-3H-diazirin-3-yl)ethoxy)phenyl)-1,2,4-oxadiazol-5-yl)-N-((1-(4-methylbenzyl)pyrrolidin-3-yl)methyl)piperidine-4-carboxamide] | +++ (+++ ≥6)
O=C(NCCCN1CCC(Cc2ccccn2)CC1)C1CCN(c2nc(-c3ccc(OC(F)(F)F)cc3)no2)CC1 [Compound 435, N-(3-(4-(pyridin-2-ylmethyl)piperidin-1-yl)propyl)-1-(3-(4-(trifluoromethoxy)phenyl)-1,2,4-oxadiazol-5-yl)piperidine-4-carboxamide] | +++ (+++ ≥6)
COc1ccc(-c2noc(N3CCC(C(=O)NCC4CCN(Cc5scnc5C)C4)CC3)n2)cc1 (stereo not drawn) [Compound 404, 1-(3-(4-methoxyphenyl)-1,2,4-oxadiazol-5-yl)-N-((1-((4-methylthiazol-5-yl)methyl)pyrrolidin-3-yl)methyl)piperidine-4-carboxamide] | ++ (++ ≥5 and <6)
COc1ccc(-c2noc(N3CCC(C(=O)NCC4CCN(CC5COC5)C4)CC3)n2)cc1 (stereo not drawn) [Compound 408, 1-(3-(4-methoxyphenyl)-1,2,4-oxadiazol-5-yl)-N-((1-(oxetan-3-ylmethyl)pyrrolidin-3-yl)methyl)piperidine-4-carboxamide] | + (+ >3 and <5)
CCCNC(=O)C1CCN(c2nc(-c3ccc(OC)cc3)no2)CC1 [Compound 127, 1-(3-(4-methoxyphenyl)-1,2,4-oxadiazol-5-yl)-N-propylpiperidine-4-carboxamide] | + (+ >3 and <5)
COc1ccc(-c2noc(N3CCN(C(=O)C4CCOCC4)CC3)n2)cc1 [Compound 148, (4-(3-(4-methoxyphenyl)-1,2,4-oxadiazol-5-yl)piperazin-1-yl)(tetrahydro-2H-pyran-4-yl)methanone] | + (+ >3 and <5)
COc1ccc(-c2noc(N3CCC(C(=O)NCC4(N(C)C)CCCCC4)CC3)n2)cc1 [Compound 249, N-((1-(dimethylamino)cyclohexyl)methyl)-1-(3-(4-methoxyphenyl)-1,2,4-oxadiazol-5-yl)piperidine-4-carboxamide] | + (+ >3 and <5)
COc1ccc(-c2noc(N3CCC(C(=O)Nc4ccc(C5COC5)cc4)CC3)n2)cc1 [Compound 306, 1-(3-(4-methoxyphenyl)-1,2,4-oxadiazol-5-yl)-N-(4-(oxetan-3-yl)phenyl)piperidine-4-carboxamide] | + (+ >3 and <5)
CCN(CC)CCNC(=O)C1CCN(c2nc(-c3ccc(OC)cc3)no2)CC1 [Compound 114, N-(2-(diethylamino)ethyl)-1-(3-(4-methoxyphenyl)-1,2,4-oxadiazol-5-yl)piperidine-4-carboxamide] | + (+ >3 and <5)
CCc1ccc(CNC(=O)C2CCN(c3nc(-c4ccc(Cl)cc4)no3)CC2)cc1 [Compound 103, 1-(3-(4-chlorophenyl)-1,2,4-oxadiazol-5-yl)-N-(4-ethylbenzyl)piperidine-4-carboxamide] | + (+ >3 and <5)
COc1ccc(-c2noc(N3CCC(C(=O)NCC4(N(C)C)Cc5ccccc5C4)CC3)n2)cc1 [Compound 296, N-((2-(dimethylamino)-2,3-dihydro-1H-inden-2-yl)methyl)-1-(3-(4-methoxyphenyl)-1,2,4-oxadiazol-5-yl)piperidine-4-carboxamide] | + (+ >3 and <5)
COc1ccc(-c2noc(N3CCC(C(=O)NCc4cc5ccccc5[nH]4)CC3)n2)cc1 [Compound 285, N-((1H-indol-2-yl)methyl)-1-(3-(4-methoxyphenyl)-1,2,4-oxadiazol-5-yl)piperidine-4-carboxamide] | ++ (++ ≥5 and <6)
COc1ccc(-c2noc(N3CCC(C(=O)NCC4CCN(Cc5sccc5C)C4)CC3)n2)cc1 (stereo not drawn) [Compound 381, 1-(3-(4-methoxyphenyl)-1,2,4-oxadiazol-5-yl)-N-((1-((3-methylthiophen-2-yl)methyl)pyrrolidin-3-yl)methyl)piperidine-4-carboxamide] | ++ (++ ≥5 and <6)
COc1ccc(-c2noc(N3CCC(C(=O)NCC4CCN(CC5CC(N)C5)C4)CC3)n2)cc1 (stereo not drawn) [Compound 394, N-((1-(((1s,3s)-3-aminocyclobutyl)methyl)pyrrolidin-3-yl)methyl)-1-(3-(4-methoxyphenyl)-1,2,4-oxadiazol-5-yl)piperidine-4-carboxamide] | + (+ >3 and <5)
COc1ccc(-c2noc(N3CCC(C(=O)NCC4CCN(CCF)C4)CC3)n2)cc1 (stereo not drawn) [Compound 366, N-((1-(2-fluoroethyl)pyrrolidin-3-yl)methyl)-1-(3-(4-methoxyphenyl)-1,2,4-oxadiazol-5-yl)piperidine-4-carboxamide] | + (+ >3 and <5)
COc1ccc(-c2noc(N3CCC(C(=O)NCc4ccncc4)CC3)n2)cc1 [Compound 161, 1-(3-(4-methoxyphenyl)-1,2,4-oxadiazol-5-yl)-N-(pyridin-4-ylmethyl)piperidine-4-carboxamide] | + (+ >3 and <5)
COc1ncc(-c2noc(N3CCC(C(=O)NCC4CCN(Cc5ccc(C)cc5)C4)CC3)n2)cn1 (stereo not drawn) [Compound 232, 1-(3-(2-methoxypyrimidin-5-yl)-1,2,4-oxadiazol-5-yl)-N-((1-(4-methylbenzyl)pyrrolidin-3-yl)methyl)piperidine-4-carboxamide] | + (+ >3 and <5)
COc1ccc(-c2noc(N3CCC(C(=O)NCC4CCN(CC5(C)CCOCC5)C4)CC3)n2)cc1 (stereo not drawn) [Compound 377, 1-(3-(4-methoxyphenyl)-1,2,4-oxadiazol-5-yl)-N-((1-((4-methyltetrahydro-2H-pyran-4-yl)methyl)pyrrolidin-3-yl)methyl)piperidine-4-carboxamide] | + (+ >3 and <5)
COc1ccc(-c2noc(N3CCC(C(=O)NCC4CCN(CC5CC5C)C4)CC3)n2)cc1 (stereo not drawn) [Compound 368, 1-(3-(4-methoxyphenyl)-1,2,4-oxadiazol-5-yl)-N-((1-((2-methylcyclopropyl)methyl)pyrrolidin-3-yl)methyl)piperidine-4-carboxamide] | ++ (++ ≥5 and <6)
COc1ccc(-c2noc(C3CCC(C(=O)NCC4CC(=O)N(Cc5ccccc5)C4)CC3)n2)cc1 (stereo not drawn) [Compound 177, (1r,4r)-N-((1-benzyl-5-oxopyrrolidin-3-yl)methyl)-4-(3-(4-methoxyphenyl)-1,2,4-oxadiazol-5-yl)cyclohexane-1-carboxamide] | ++ (++ ≥5 and <6)
COc1ccc(-c2noc(N3CCC(C(=O)NCC4CCN(Cc5ccc(C)nc5)C4)CC3)n2)cc1 (stereo not drawn) [Compound 351, 1-(3-(4-methoxyphenyl)-1,2,4-oxadiazol-5-yl)-N-((1-((6-methylpyridin-3-yl)methyl)pyrrolidin-3-yl)methyl)piperidine-4-carboxamide] | ++ (++ ≥5 and <6)
COc1ccc(-c2noc(N3CCC(C(=O)N[C@@H](C)c4ccccc4F)CC3)n2)cc1 [Compound 266, (S)-N-(1-(2-fluorophenyl)ethyl)-1-(3-(4-methoxyphenyl)-1,2,4-oxadiazol-5-yl)piperidine-4-carboxamide] | + (+ >3 and <5)
COc1ccc(-c2noc(N3CCC(C(=O)N4CCN(c5ccccc5)CC4)CC3)n2)cc1 [Compound 205, (1-(3-(4-methoxyphenyl)-1,2,4-oxadiazol-5-yl)piperidin-4-yl)(4-phenylpiperazin-1-yl)methanone] | + (+ >3 and <5)
COc1ccc(-c2noc(N3CCC(C(=O)NC4CCC(F)(F)C4)CC3)n2)cc1 (stereo not drawn) [Compound 275, N-(3,3-difluorocyclopentyl)-1-(3-(4-methoxyphenyl)-1,2,4-oxadiazol-5-yl)piperidine-4-carboxamide] | + (+ >3 and <5)
COc1ccc(-c2noc(N3CCC(C(=O)NCC4CCN(Cc5ccccn5)C4)CC3)n2)cc1 (stereo not drawn) [Compound 340, 1-(3-(4-methoxyphenyl)-1,2,4-oxadiazol-5-yl)-N-((1-(pyridin-2-ylmethyl)pyrrolidin-3-yl)methyl)piperidine-4-carboxamide] | ++ (++ ≥5 and <6)
